# Measured values published in patent US9365522B2, “Pyrazole amide derivative” (AMGEN INC., priority 2015, dated 2016).
# Target: T1, ligand binding domain of human ROR gamma (Homo sapiens, UniProt P51449)
# T1 construct: NM_001001523; expressed in transfected cells; host or cells: HEK293T
# T1 sequence (P51449 247-497 isoform P51449-2): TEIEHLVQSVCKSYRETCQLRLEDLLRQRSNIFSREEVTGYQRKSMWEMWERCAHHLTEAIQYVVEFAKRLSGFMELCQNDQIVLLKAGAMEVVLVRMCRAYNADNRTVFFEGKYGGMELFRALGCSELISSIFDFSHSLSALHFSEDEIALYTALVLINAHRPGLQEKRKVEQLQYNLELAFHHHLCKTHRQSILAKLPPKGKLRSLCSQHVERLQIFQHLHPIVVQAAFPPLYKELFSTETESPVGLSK
# Test: ROR gamma reporter gene assay (GAL4-RORγ LBD luciferase, Dual-Glo)
# Format: cell-based
# Conditions: HEK293T cells transfected with pM-ROR gamma, 8 concentrations 3.5 nM to 10.5 μM, 24 h incubation; read-out: result (pIC50, inhibition of RORγ transcriptional activity) (converted)
# Method in brief: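 HEK293T cells were co-transfected with GAL4 DBD fused to human RORγ LBD (aa 247-497), a 5×UAS firefly luciferase reporter and CMV-driven renilla luciferase, in medium with 10% charcoal-stripped FBS.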
row,SMILES,IC50 [pM]
1,"COCC(C)N(CC(=O)c1c(Cl)cncc1Cl)C(=O)c1cnn([C@H]2CC[C@](C)(C(=O)O)CC2)c1C(F)(F)F (stereo partly drawn) [Example 313, trans-4-(4-((2-(3,5-dichloropyridin-4-yl)-2-oxoethyl)-(1-methoxypropan-2-yl)carbamoyl)-5-(trifluoromethyl)pyrazol-1-yl)-1-methylcyclohexane-1-carboxylic acid]",1.55e+06
2,"CC(C)=CCN(CC(=O)c1c(Cl)cncc1Cl)C(=O)c1cnn([C@H]2CC[C@](C)(C(=O)O)CC2)c1C(F)(F)F [Example 314, trans-4-(4-((2-(3,5-dichloropyridin-4-yl)-2-oxoethyl)-(3-methylbut-2-enyl)carbamoyl)-5-(trifluoromethyl)pyrazol-1-yl)-1-methylcyclohexane-1-carboxylic acid]",41700
3,"COc1cncc(Cl)c1C(=O)CN(CC(C)(C)C)C(=O)c1cnn([C@H]2CC[C@](C)(C(=O)O)CC2)c1C(F)(F)F [Example 315, trans-4-(4-((2-(3-chloro-5-methoxypyridin-4-yl)-2-oxoethyl)-(2,2-dimethylpropyl)carbamoyl)-5-(trifluoromethyl)pyrazol-1-yl)-1-methylcyclohexane-1-carboxylic acid]",55000
4,"CC1(CN(CC(=O)c2c(Cl)cncc2Cl)C(=O)c2cnn(C34CCC(C(=O)O)(CC3)CC4)c2C(F)(F)F)CC1 [Example 316, 4-(4-((2-(3,5-dichioropyridin-4-yl)-2-oxoethyl)-((1-methylcyclopropyl)methyl)carbamoyl)-5-(trifluoromethyl)pyrazol-1-yl)bicyclo[2.2.2]octane-1-carboxylic acid]",9120
5,"CC(C)(C)CN(CC(=O)c1c(Cl)cccc1Cl)C(=O)c1cnn(C23CCC(C(=O)O)(CC2)CC3)c1C(F)(F)F [Example 317, 4-(4-((2-(2,6-dichlorophenyl)-2-oxoethyl)-(2,2-dimethylpropyl)carbamoyl)-5-(trifluoromethyl)pyrazol-1-yl)bicyclo[2.2.2]octane-1-carboxylic acid]",10000
6,"CC(C)(C)OCCN(CC(=O)c1c(Cl)cncc1Cl)C(=O)c1cnn([C@H]2CC[C@](C)(C(=O)O)CC2)c1C(F)(F)F [Example 318, trans-4-(4-((2-(3,5-dichloropyridin-4-yl)-2-oxoethyl)-(2-((2-methylpropan-2-yl)oxy)ethyl)carbamoyl)-5-(trifluoromethyl)pyrazol-1-yl)-1-methylcyclohexane-1-carboxylic acid]",20000
7,"CC(C)CC1(N(CC(=O)c2c(Cl)cncc2Cl)C(=O)c2cnn([C@H]3CC[C@](C)(C(=O)O)CC3)c2C(F)(F)F)CC1 [Example 319, trans-4-(4-((2-(3,5-dichloropyridin-4-yl)-2-oxoethyl)-(1-(2-methylpropyl)cyclopropyl)carbamoyl)-5-(trifluoromethyl)pyrazol-1-yl)-1-methylcyclohexane-1-carboxylic acid]",141000
8,"CC1(C)[C@@H]2C[C@H](N(CC(=O)c3c(Cl)cccc3Cl)C(=O)c3cnn(C45CCC(C(=O)O)(CC4)CC5)c3C(F)(F)F)C[C@@H]21 [Example 320, 4-(4-((2-(2,6-dichlorophenyl)-2-oxoethyl)((1R,3r,5S)-6,6-dimethylbicyclo[3.1.0]hexan-3-yl)carbamoyl)-5-(trifluoromethyl)-1H-pyrazol-1-yl)bicyclo [2.2.2] octane-1-carboxylic acid]",9770
9,"Cc1cc(Cl)c(C(=O)CN(C(=O)c2cnn(C34CCC(C(=O)O)(CC3)CC4)c2C(F)(F)F)[C@H]2C[C@@H]3[C@H](C2)C3(C)C)c(Cl)c1 [Example 321, 4-(4-((2-(2,6-dichloro-4-methylphenyl)-2-oxoethyl)((1R,3r,5S)-6,6-dimethylbicyclo[3.1.0]hexan-3-yl)carbamoyl)-5-(trifluoromethyl)-1H-pyrazol-1-yl)bicyclo[2.2.2]octane-1-carboxylic acid]",11700
10,"CC1(C)C(CN(CC(=O)c2c(Cl)cncc2Cl)C(=O)c2cnn(C34CCC(C(=O)O)(CC3)CC4)c2C(F)(F)F)C1(C)C [Example 322, 4-(4-((2-(3,5-dichloropyridin-4-yl)-2-oxoethyl)-((2,2,3,3-tetramethylcyclopropyl)methyl)carbamoyl)-5-(trifluoromethyl)pyrazol-1-yl)bicyclo[2.2.2]octane-1-carboxylic acid]",8130
11,"CC1(C)CCC(N(CC(=O)c2c(Cl)cncc2Cl)C(=O)c2cnn([C@H]3CC[C@](C)(C(=O)O)CC3)c2C(F)(F)F)CO1 (stereo partly drawn) [Example 323, trans-4-(4-((2(3,5-dichloropyridin-4-yl)-2-oxoethyl)-(6,6-dimethyloxan-3-yl)carbamoyl)-5-(trifluorornethyl)pyrazol-1-yl)-1-methylcyclohexane-1-carboxylic acid]",380000
12,"C[C@]1(C(=O)O)CC[C@H](n2ncc(C(=O)N(CC(=O)c3c(Cl)cncc3Cl)CC3(O)CCCC3)c2C(F)(F)F)CC1 [Example 324, trans-4-(4-((2-(3,5-dichloropyridin-4-yl)-2-oxoethyl)-((1-hydroxycyclopentyl)methyl)carbamoyl)-5-(trifluoromethyl)pyrazol-1-yl)-1-methylcyclohexane-1-carboxylic acid]",380000
13,"CC1(C)C(CN(CC(=O)c2c(Cl)cncc2Cl)C(=O)c2cnn([C@H]3CC[C@](C)(C(=O)O)CC3)c2C(F)(F)F)C1(C)C [Example 325, trans-4-(4-((2-(3,5-dichloropyridin-4-yl)-2-oxoethyl)-((2,2,3,3-tetramethylcyclopropyl)methyl)carbamoyl)-5-(trifluoromethyl)pyrazol-1-yl)-1-methylcyclohexane-1-carboxylic acid]",10700
14,"CC(C)(F)CN(CC(=O)c1c(Cl)cncc1Cl)C(=O)c1cnn([C@H]2CC[C@](C)(C(=O)O)CC2)c1C(F)(F)F [Example 326, trans-4-(4-((2-(3,5-dichloropyridin-4-yl)-2-oxoethyl)-(2-fluoro-2-methylpropyl)carbamoyl)-5-(trifluoromethyl)pyrazol-1-yl)-1-methylcyclohexane-1-carboxylic acid]",102000
15,"CC(C)(F)CN(CC(=O)c1c(Cl)cncc1Cl)C(=O)c1cnn(C23CCC(C(=O)O)(CC2)CC3)c1C(F)(F)F [Example 327, 4-(4-((2-(3,5-dichloropyridin-4-yl)-2-oxoethyl)-(2-fluoro-2-methylpropyl)carbamoyl)-5-(trifluoromethyl)pyrazol-1-yl)bicyclo[2.2.2]octane-1-carboxylic acid]",97700
16,"CC(C)(C)CN(CCc1c[nH]c2ccccc12)C(=O)c1cnn([C@H]2CC[C@](C)(C(=O)O)CC2)c1C(F)(F)F [Example 328, trans-4-(4-(2,2-dimethylpropyl-(2-(1H-indol-3-yl)ethyl)carbamoyl)-5-(trifluoromethyl)pyrazol-1-yl)-1-methylcyclohexane-1-carboxylic acid]",2.95e+06
17,"O=C(CN(CC1(C(F)(F)F)CC1)C(=O)c1cnn(C23CCC(C(=O)O)(CC2)CC3)c1C(F)(F)F)c1c(Cl)cncc1Cl [Example 329, 4-(4-((2-(3,5-dichloropyridin-4-yl)-2-oxoethyl)-((1-(trifluoromethyl)cyclopropyl)methyl)carbamoyl)-5-(trifluoromethyl)pyrazol-1-yl)bicyclo[2.2.2]octane-1-carboxylic acid]",14800
18,C[C@]1(C(=O)O)CC[C@H](n2ncc(C(=O)N(CC(=O)c3c(Cl)cncc3Cl)CC3(C(F)(F)F)CC3)c2C(F)(F)F)CC1 [Example 330],24000
